Literature values, collected in patent US20260240147A1, “MANCOZEB NANOSUSPENSION AND PREPARATION METHOD THEREOF” (priority 2022, published 2026).

Substance: manganese ethylene bis(dithiocarbamate) polymeric complex with zinc salt coordination compound [mancozeb]
- solubility in most organic solvents: insoluble
- solubility in water (pH 7.5, 25° C.): 6.2 µg/mL
